Assay results published in patent US7863271B2, “2-aminobenzoxazole carboxamides as 5HT3 modulators” (Albany Molecular Research, Inc., priority 2006, dated 2011).
Structures can show the parent of a compound that is named as a salt.

target: T1, 5-HT3 (Homo sapiens, UniProt P46098); experiment: Compound affinity for the human 5-HT3 receptor (Assay B), SPA radioligand binding with [9-methyl-3H]BRL-43694; parameters: purchased Perkin Elmer; details: Assay B (method B unless otherwise annotated); read-out: 5-HT3 Ki
T1 sequence (P46098 24-478): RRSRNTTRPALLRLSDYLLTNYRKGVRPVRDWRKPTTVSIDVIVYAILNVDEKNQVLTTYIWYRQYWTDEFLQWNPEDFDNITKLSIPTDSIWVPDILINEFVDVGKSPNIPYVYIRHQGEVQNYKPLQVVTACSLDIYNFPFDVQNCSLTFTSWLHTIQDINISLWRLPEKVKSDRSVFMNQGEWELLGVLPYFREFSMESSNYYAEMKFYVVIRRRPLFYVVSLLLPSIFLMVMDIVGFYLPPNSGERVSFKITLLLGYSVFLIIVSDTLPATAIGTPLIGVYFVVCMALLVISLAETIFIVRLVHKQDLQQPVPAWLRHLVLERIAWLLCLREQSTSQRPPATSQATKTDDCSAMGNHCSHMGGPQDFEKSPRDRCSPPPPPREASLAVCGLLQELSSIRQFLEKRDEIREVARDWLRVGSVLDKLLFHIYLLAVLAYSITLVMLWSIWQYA
Method in brief: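 Ten competitor concentrations in duplicate; specific binding (total minus nonspecific) fitted for IC50, converted to Ki by Cheng-Prusoff.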

SMILES	Ki [nM]
C[C@H]1CNC[C@H](C)N1c1nc2c(C(=O)NC3CC4CCCC(C3)N4C)cccc2o1 (stereo partly drawn) [Example 73, Endo-N-(9-Methyl-9-azabicyclo[3.3.1]nonan-3-yl)-2-((2S,6S)-2,6-dimethylpiperazin-1-yl)benzoxazole-4-carboxamide Hydrochloride]	2.2
C[C@H]1CN(C(=O)c2ccccc2)C[C@H](C)N1c1nc2c(C(=O)NC3CC4CCCC(C3)N4C)cccc2o1 (stereo partly drawn) [Example 117, Endo-N-(9-methyl-9-azabicyclo[3.3.1]nonan-3-yl)-2-((2S,6S)-4-benzoyl-2,6-dimethylpiperazin-1-yl)benzoxazole-4-carboxamide Hydrochloride]	2.3
CC(C)C[C@H]1CN(Cc2ccccc2)CCN1c1nc2c(C(=O)NC3CC4CCCC(C3)N4C)cccc2o1 (stereo partly drawn) [Example 71, Endo-N-(9-Methyl-9-azabicyclo[3.3.1]nonan-3-yl)-2-((2S)-2-isobutyl-4-benzylpiperazin-1-yl)benzoxazole-4-carboxamide Hydrochloride]	48.6
CN1[C@@H]2COC[C@H]1C[C@@H](NC(=O)c1cccc3oc(N4CCOCC4)nc13)C2 [Example 44, Endo-N-(9-Methyl-3-oxa-9-azabicyclo[3.3.1]nonan-7-yl)-2-morpholinobenzoxazole-4-carboxamide Hydrochloride]	323
CC1CN(C(=O)N2CCCC2)CC(C)N1c1nc2c(C(=O)NC3CC4CCCC(C3)N4)cccc2o1 [Example 146, Endo-N-(9-azabicyclo[3.3.1]nonan-3-yl)-2-((2S,6S)-2,6-dimethyl-4-(pyrrolidine-1-carbonyl)piperazin-1-yl)benzoxazole-4-carboxamide hydrochloride]	32.2
CN1[C@@H]2CCC[C@H]1C[C@@H](NC(=O)c1cccc3oc(N4CCNCC45CCCC5)nc13)C2 [Example 100, Endo-N-(9-Methyl-9-azabicyclo[3.3.1]nonan-3-yl)-2-(6,9-diazaspiro[4.5]decan-6-yl)benzoxazole-4-carboxamide Hydrochloride]	11.4
CN1[C@@H]2CCC[C@H]1C[C@@H](NC(=O)c1cccc3oc(N4CCC[C@H]4C(N)=O)nc13)C2 [Example 53, Endo-N-(9-Methyl-9-azabicyclo[3.3.1]non-3-yl)-2-((S)-2-carbamoylpyrrolidin-1-yl)benzoxazole-4-carboxamide Hydrochloride]	212
C[C@H]1COC[C@H](C)N1c1nc2c(C(=O)N[C@@H]3CN4CCC3CC4)cccc2o1 [Example 90, (S)—N-(quinuclidine-8-yl)-2-((3S,5S)-3,5-Dimethylmorpholino)benzoxazole-4-carboxamide Hydrochloride]	6.8
CN1[C@@H]2CCC[C@H]1C[C@@H](NC(=O)c1cccc3oc(N4CCNc5ccccc54)nc13)C2 [Example 29, Endo-N-(9-Methyl-9-azabicyclo[3.3.1]non-3-yl)-2-(3,4-dihydroquinoxaline-1(2H)-yl)benzoxazole-4-carboxamide Dihydrochloride]	3.6
CN1CCCN(c2nc3c(C(=O)NC4CN5CCC4CC5)cccc3o2)CC1 [Example 12, (S)—N-(quinuclidine-8-yl)-2-(4-methyl-1,4-diazepam-1-yl)benzoxazole-4-carboxamide Dihydrochloride]	317
C[C@H]1COCCN1c1nc2c(C(=O)NC3CC4CCCC(C3)N4C)cc(Cl)cc2o1 (stereo partly drawn) [Example 106, Endo-6-Chloro-N-(9-methyl-9-azabicyclo[3.3.1]nonan-3-yl)-2-((S)-3-methylmorpholino)benzoxazole-4-carboxamide Hydrochloride]	12.6
C[C@H]1CN(Cc2ccccc2)C[C@H](C)N1c1nc2c(C(=O)NC3CC4CCCC(C3)N4C)cccc2o1 (stereo partly drawn) [Example 148, Endo-N-(9-methyl-9-azabicyclo[3.3.1]nonan-3-yl)-2-((2S,6S)-4-benzyl-2,6-dimethylpiperazin-1-yl)benzoxazole-4-carboxamide Hydrochloride]	1.6
C[C@@H]1CN(c2nc3c(C(=O)NC4CC5CCCC(C4)N5C)cccc3o2)[C@@H](C)CN1 (relative stereo) [Example 60, Endo N-(9-Methyl-9-azabicyclo[3.3.1]nonan-3-yl)-2-((2S*,5R*)-2,5-dimethylpiperazin-1-yl)benzoxazole-4-carboxamide Hydrochloride]	10.5
CCOC(=O)N1C[C@H](C)N(c2nc3c(C(=O)NC4CC5CCCC(C4)N5C)cccc3o2)[C@@H](C)C1 (stereo partly drawn) [Example 144, Endo-N-(9-methyl-9-azabicyclo[3.3.1]nonan-3-yl)-2-((2S,6S)-4-(ethoxycarbonyl)-2,6-dimethylpiperazin-1-yl)benzoxazole-4-carboxamide Hydrochloride]	1
C[C@H]1CS(=O)(=O)C[C@H](C)N1c1nc2c(C(=O)NC3CC4CCCC(C3)N4C)cccc2o1 (stereo partly drawn) [Example 123, Endo-N-(9-methyl-9-azabicyclo[3.3.1]nonan-3-yl)-2-((3S,5S)/(3R,5R)-3,5-dimethylthiomorpholine 1,1-dioxide)benzoxazole-4-carboxamide Hydrochloride]	57
C[C@H]1CN(C(=O)N(C)C)C[C@H](C)N1c1nc2c(C(=O)NC3CC4CCCC(C3)N4C)cccc2o1 (stereo partly drawn) [Example 136, Endo-N-(9-methyl-9-azabicyclo[3.3.1]nonan-3-yl)-2-((2S,6S)-2,6-dimethyl-4-(dimethylcarbamoyl)piperazin-1-yl)benzoxazole-4-carboxamide Hydrochloride]	2.6
C[C@H]1CN(C)C[C@H](C)N1c1nc2c(C(=O)NC3CC4CCCC(C3)N4C)cccc2o1 (stereo partly drawn) [Example 122, Endo-N-(9-methyl-9-azabicyclo[3.3.1]nonan-3-yl)-2-((2S,6S-2,4,6-trimethylpiperazin-1-yl)benzoxazole-4-carboxamide Hydrochloride]	2.3
CN1[C@@H]2CCC[C@H]1C[C@@H](NC(=O)c1cccc3oc(N4CCNCC4(C)C)nc13)C2 [Example 102, Endo-N-(9-Methyl-9-azabicyclo[3.3.1]nonan-3-yl)-2-(2,2-dimethylpiperazin-1-yl)benzoxazole-4-carboxamide Hydrochloride]	15.8
CN1[C@@H]2CCC[C@H]1C[C@@H](NC(=O)c1cccc3oc(NCCCO)nc13)C2 [Example 40, Endo-N-(9-Methyl-9-azabicyclo[3.3.1]nonan-3-yl)-2-(3-hydroxypropylamino)benzoxazole-4-carboxamide Hydrochloride]	7.8
CN1[C@@H]2CCC[C@H]1C[C@@H](NC(=O)c1cc(Cl)cc3oc(N)nc13)C2 [Example 111, Endo-2-amino-6-chloro-N-(9-Methyl-9-azabicyclo[3.3.1]nonan-3-yl)benzoxazole-4-carboxamide Hydrochloride]	2
CN1[C@@H]2COC[C@H]1C[C@@H](NC(=O)c1cccc3oc(Nc4ccccc4)nc13)C2 [Example 45, Endo-N-(9-Methyl-3-oxa-9-azabicyclo[3.3.1]nonan-7-yl)-2-(phenylamino)benzoxazole-4-carboxamide Hydrochloride]	22.6
CN1[C@@H]2CCC[C@H]1C[C@@H](NC(=O)c1cccc3oc(N4CCN(c5ncccn5)CC4)nc13)C2 [Example 42, Endo-N-(9-Methyl-9-azabicyclo[3.3.1]nonan-3-yl)-2-(4-(pyrimidin-2-yl)piperazin-1-yl)benzoxazole-4-carboxamide Hydrochloride]	11
CN1[C@@H]2CCC[C@H]1C[C@@H](NC(=O)c1cccc3oc(Nc4ccccc4)nc13)C2 [Example 5, Endo-N-(9-Methyl-9-azabicyclo[3.3.1]non-3-yl)-2-(phenylamino)benzoxazole-4-carboxamide Hydrochloride]	6.25
C[C@H]1CN(C(=O)C2CCCC2)C[C@H](C)N1c1nc2c(C(=O)NC3CC4CCCC(C3)N4C)cccc2o1 (stereo partly drawn) [Example 133, Endo-N-(9-methyl-9-azabicyclo[3.3.1]nonan-3-yl)-2-((2S,6S-4-(cyclopentanecarbonyl)-2,6-dimethylpiperazin-1-yl)benzoxazole-4-carboxamide Hydrochloride]	1.8
CC(C)C[C@H]1COCCN1c1nc2c(C(=O)NC3CC4CCCC(C3)N4C)cccc2o1 (stereo partly drawn) [Example 67, Endo-N-(9-Methyl-9-azabicyclo[3.3.1]nonan-3-yl)-2-((S)-3-isobutylmorpholino)benzoxazole-4-carboxamide Hydrochloride]	3.9
CC(C)[C@H]1CNCCN1c1nc2c(C(=O)NC3CC4CCCC(C3)N4C)cccc2o1 (stereo partly drawn) [Example 76, Endo-N-(9-Methyl-9-azabicyclo[3.3.1]nonan-3-yl)-2-((S)-2-isopropylpiperazin-1-yl)benzoxazole-4-carboxamide Hydrochloride]	9.8
C[C@H]1CN(C)C(=O)[C@H](C)N1c1nc2c(C(=O)NC3CN4CCC3CC4)cccc2o1 (stereo partly drawn) [Example 124, N-(Quinuclidine-8-yl)-2-((2S,6S)-2,4,6-trimethyl-3-oxopiperazine-1-yl)benzoxazole-4-carboxamide Hydrochloride]	17.7
CN1[C@@H]2CCC[C@H]1C[C@@H](NC(=O)c1cccc3oc(Nc4ccncc4)nc13)C2 [Example 27, Endo-N-(9-Methyl-9-azabicyclo[3.3.1]non-3-yl)-2-(pyridine-4-ylamino)benzoxazole-4-carboxamide Dihydrochloride]	4.5
O=C(N[C@@H]1CN2CCC1CC2)c1cccc2oc(N3CCCCC3)nc12 [Example 4, (S)—N-(quinuclidine-8-yl)-2-(piperidin-1-yl)benzoxazole-4-carboxamide hydrochloride]	34.2
